# Test results from patent US7855185B2, “MN gene and protein” (Institute of Virology of the Slovak Academy of Sciences, priority 2001, dated 2010).
# Experiments:
# [1] = test system: Rat2TK- cells and C33 human cervical carcinoma cells transfected with pMN-HSVtk; experiment: GVC sensitivity of pMN-HSVtk transfectants; assay type: cell-based; details: in vitro, even in low concentrations
# Procedure: A plasmid construct in which HSVtk was cloned downstream of the MN promoter region Bd3, containing both proximal and distant regulatory elements of MN, was prepared. That plasmid pMN-HSVtk was transfected to Rat2TK-cells and C33 human cervical carcinoma cells using calcium phosphate precipitation and lipofection, respectively. Transfectants were tested for expression of HSVtk and GVC sensitivity. Analysis of the transfectants has shown the remarkable cytotoxic in vitro effect of GVC even in low concentrations (up to 95% of cells killed).
# [2] = test system: NIH3T3 cells freshly transformed with the [pGD.MN+MLV] complex; experiment: Morphologic transformation of NIH3T3 cells by [pGD.MN+MLV] complex in the presence of acetazolamide; details: 10^−5M, 4 days of incubation
# MAb M75 = experiment: Competition ELISA with M75 on adsorbed GST-MN; assay type: binding, mouse; details: for competition in ELISA for M75: 100 μg/ml; for activity of phage-display nonapeptides in competition ELISA: peptides of 7+2 aa
# Procedure: ELISA. Purified GST-MN [Zavada et al. (1993), supra] at concentration 10 ng/ml in carbonate buffer pH 9.2 was adsorbed for 3 h in Maxisorb strips (NUNC). After washing and blocking (1 h) with 0.05% Tween 20 in PBS, 50 μl/well of the antibody+antigen mixtures were added. […] These mixtures were adsorbed for 1.5 h, followed by washing with Tween-PBS. Bound antibody was detected by antimouse IgG conjugate with peroxidase (SwAM-Px, SEVAC, Prague), diluted 1:1000. In the color reaction OPD (o-phenylenediamine dihydrochloride, Sigma) 1 mg/ml in 0.1 M citrate buffer pH 5.0 was used. To this H2O2 was added to final concentration 0.03%. This system is balanced so as to allow assay for antigen competing for M75 as well as for peptides binding to the epitope of immobilized GST-MN.
# Identification of the epitope recognized by Mab M75. Preliminary mapping of M75 epitope employing partial sequences of extracellular parts of MN/CA9 cDNA expressed from bacterial vectors and tested on Western blots located it in PG region For exact mapping, our strategy was to synthesize partially overlapping oligopeptides of 15-25 aa covering the PG domain and test them in competition ELISA with M75. According to the results, this was followed by a series of 6-12 aa oligopeptides. A major part of the PG domain consists of a 6-fold tandem repeat of 6 aa (aa 61-96) [SEQ ID NO: 97]; 4 repeats are identical (GEEDLP) [SEQ ID NO: 98] and 2 contain 2 aa exchanged (SEEDSP [SEQ ID NO: 141] and REEDPP [SEQ ID NO: 142]).
# MN/CA IX = MN/CA IX (Homo sapiens, UniProt Q16790); experiment: Cell adhesion assay on immobilized purified MN/CA IX (Example 2); assay type: cell-based
# Procedure: The series of oligopeptides were tested by the cell adhesion assay procedure essentially as described above in Example 1. The synthetic oligopeptides were immobilized on hydrophobic plastic surfaces to see if they would mediate the attachment, spreading and growth of cells. Also investigated were whether the oligopeptides or antibodies inhibited attachment of cells (NIH3T3, HeLa and CGL1) to purified MN protein coated onto such plastic surfaces. The MN protein was affinity purified on agarose covalently linked to sulfonamide, as the MN protein encompasses a CA domain.
# Cell adhesion assay. The conditions of the assay are basically as described in Example 1. Briefly, 1 μg/ml of purified MN/CA IX in 50 mM mono/bicarbonate buffer, pH 9.2, was adsorbed in 30 μl drops on the bottom of bacteriological 5 cm Petri dishes for 1.5 hr. Then the drops were removed by aspiration and the dishes were 3× rinsed with PBS and blocked with 50% FCS in culture medium for 30 min. There were two variants of the test. In the first one, the whole bottom of the Petri dish was blocked with 50% FCS, and the dishes were seeded with 5 ml of cell suspension (10^5 cells/ml). After overnight incubation, the cultures were rinsed with PBS, fixed and stained. In the other variant, only the area of adsorbed MN/CA IX was blocked and on top of MN/CA IX dots were added 30 μl drops of cell suspension in growth medium, containing added oligopeptides (or control without peptides). After incubation, rinsing and fixation, the cultures were stained with 0.5% Trypan blue in 50 mM Tris buffer pH 8.5 for 1 h, rinsed with water and dried. Stained areas of attached cells were extracted with 10% acetic acid, the extracts transferred to 96-well plates and absorbance was measured at 630 nm on microplate reader.
compound,measurement,setting,value
"Nc1nc(O)c2ncn(COC(CO)CO)c2n1 [GVC, ganciclovir]",cells killed,[1],up to 95%
CC(=O)Nc1nnc(S(N)(=O)=O)s1 [acetazolamide],difference between transformed cells growing in presence or absence of the drug,[2],No difference
ADLPGEEA [SEQ ID NO: 134],serological activity in competition ELISA with M75,MAb M75,none of the following still shorter oligopeptides (6+2aa) competed
ADLPGEEDA [SEQ ID NO. 129],competition in ELISA for M75,MAb M75,negative
AEDLPGEA [SEQ ID NO: 133],serological activity in competition ELISA with M75,MAb M75,none of the following still shorter oligopeptides (6+2aa) competed
AEDLPGEEA [SEQ ID NO: 128],competition in ELISA for M75,MAb M75,negative
AEEDLPGA [SEQ ID NO: 132],serological activity in competition ELISA with M75,MAb M75,none of the following still shorter oligopeptides (6+2aa) competed
AEEDLPGEA [SEQ ID NO: 127],competition in ELISA for M75,MAb M75,negative
AGEEDLPA [SEQ ID NO: 131],serological activity in competition ELISA with M75,MAb M75,none of the following still shorter oligopeptides (6+2aa) competed
AGQTRSPLA [SEQ ID NO: 140],activity of phage-display nonapeptides in competition ELISA,MAb M75,inactive
same,activity of phage-display nonapeptides in cell adhesion inhibition,MN/CA IX,inactive
AITFNAQYA [SEQ ID NO: 138],activity of phage-display nonapeptides in competition ELISA,MAb M75,highest activity
same,activity of phage-display nonapeptides in cell adhesion inhibition,MN/CA IX,highest activity
AKKMKRRKA [SEQ ID NO: 137],activity of phage-display nonapeptides in competition ELISA,MAb M75,less active
same,activity of phage-display nonapeptides in cell adhesion inhibition,MN/CA IX,less active
ALPGEEDA [SEQ ID NO: 135],serological activity in competition ELISA with M75,MAb M75,none of the following still shorter oligopeptides (6+2aa) competed
ALPGEEDLA [SEQ ID NO: 130],competition in ELISA for M75,MAb M75,negative
APGEEDLA [SEQ ID NO: 136],serological activity in competition ELISA with M75,MAb M75,none of the following still shorter oligopeptides (6+2aa) competed
APGEEDLPA [SEQ ID NO: 125],serological activity in competition ELISA with M75,MAb M75,minimum serologically active sequence
ASASAPVSA [SEQ ID NO: 139],activity of phage-display nonapeptides in competition ELISA,MAb M75,marginally positive
same,activity of phage-display nonapeptides in cell adhesion inhibition,MN/CA IX,marginally positive only in ELISA
DLPGEEDLPGEE [SEQ ID NO: 122],serological activity in competition ELISA with M75,MAb M75,serologically active
EDLPGEEDLP [SEQ ID NO: 121],serological activity in competition ELISA with M75,MAb M75,serologically active
"EDPPGEEDLPGEEDLPGEEDLPEVC [SEQ ID NO: 106, aa 75-98 of the PG region, cysteine added onto the C-end]",concentration causing 50% inhibition in competition ELISA,MAb M75,1 ng/mL
EEDLPGEEDLPG [SEQ ID NO: 120],serological activity in competition ELISA with M75,MAb M75,serologically active
"EVKPKSEEEGSLKLE [SEQ ID NO: 118, aa 97-111 of the PG region]",serological activity in competition ELISA with M75,MAb M75,inactive
GEEDLPGEEDLP [SEQ ID NO: 119],serological activity in competition ELISA with M75,MAb M75,serologically active
"GEEDLPSEEDSPREEDPPGEEDLPGEC [SEQ ID NO: 105, aa 61-85 of the PG region, cysteine added onto the C-end]",fold less active than SEQ ID NOS: 104 and 106 in competition ELISA,MAb M75,1000 ×
"GGSSGEDDPLGEEDLPSEEDSPC [SEQ ID NO: 104, aa 51-72 of the PG region, cysteine added onto the C-end]",concentration causing 50% inhibition in competition ELISA,MAb M75,1 ng/mL
LPGEEDLPGEED [SEQ ID NO: 123],serological activity in competition ELISA with M75,MAb M75,serologically active
PGEEDLPGEEDL [SEQ ID NO: 124],serological activity in competition ELISA with M75,MAb M75,serologically active
